Source: US11220498B2, “Neuroprotective aminothiazoles” (priority 2018, dated 2022)

Experiments:
[1] = system: SUMOylation of His-RanGap; assay: HTRF assay measuring increase in SUMOylation of His-RanGap; assay type: biochemical; conditions: His-RanGap substrate, SUMO-E1 (SAE), SUMO-E2 (UBC9), GST-SUMO; HTRF ratio 665/620; 30 min at room temperature; triplicate
Protocol: Assay measuring increase in SUMOylation of His-RanGap. We utilized an HTRF assay containing SUMO-E1 (SAE), SUMO-E2 (UBC9), GST-SUMO and His-RanGap, a known SUMO substrate, as well as the respective fluorescent antibodies. The assay was run in 1536-well plate format and the selected activators were chosen based on their ability to increase the FRET signal over a baseline level. In 1536-well white plates, 2 μl of phosphate buffered saline (assay buffer) was dispensed into columns 1 and 2, and 2 μl of Mixture 1 (37.5 nM E1 and 100 nM His-RanGap-1) in assay buffer (50 mM Tris-HCl pH 7.4, 0.3 mM DTT, 10 mM MgCl2, 0.005% Tween-20), was dispensed into columns 3-48. Using a pintool, 70 nl of 2 mM compounds in DMSO was dispensed to columns 5-48 and 70 nl of DMSO was dispensed to columns 1-4. Using the Thermo Scientific MultiDrop Combi, 2 μL of Mixture 2 (20 mM ATP, 12.5 nM E2 and 30 nM GST-SUMO in buffer) was dispensed to all wells and incubated for 30 min. at room temperature followed by 1 μl of 500 mM KF. Plates were read on a PheraStar in a HTRF mode (Ex: 337 nm; Em: 620/665 nm). The ratio of fluorescence 665 over 620 was utilized as a readout of the assay. Increase in SUMOylation was calculated by comparison to baseline level. Measurements were done in triplicate.

[2] = system: CSM14.1 cells; assay: Rescue of CSM14.1 neurons from thapsigargin-induced cell death (ATPlite cell viability); assay type: cell-based; conditions: Rattus norvegicus, Neuron, 10 μM compound, 2 h preincubation, 15 μM TG for 20 h, read-out: % CSM14.1 Cell Viability after treatment with 15 μM TG in Presence of 10 μM compound
From the text: Ability of compounds to rescue CSM14.1 neurons from thapsigargin-induced cell death. To assess the ability of the compounds to rescue neurons from ER stress-induced cell death, the rat striatel neuroprogenitor cell line CSM14.1 was used. Endoplasmic reticulum (ER) stress has been established as the major cause of neuronal loss in stroke, ischemia, and neurodegeneration (Tajiri, S.; Oyadomari, S.; Yano, S.; Morioka, M.; Gotoh, T.; Hamada, J. I.; Ushio, Y.; Mori, M. Cell Death Differ. 2004, 11, 403-415; Kohno, K.; Higuchi, T.; Ohta, S.; Kumon, Y.; Sakaki, S. Neurosci. Lett. 1997, 224, 17-20; ladecola, C.; Zhang, F.; Casey, R.; Nagayama, M.; Ross, M. E. J. Neurosci. 1997, 17, 9157-9164). Thus, we used the known ER stress-causing agent thapsigargin (TG) to model the compromised state in vitro. TG causes 100% cell death in most cases, and compounds were assessed for neuroprotection by measuring cell viability when dosed at 10 μM. CSM14.1 cells were recovered from cultures by trypsinization and plated in 96-well plates and incubated overnight at 32° C. 5 μl of test compound was added to achieve a final concentration of […]. Salubrinal and DMSO without compound were used as positive and negative controls, respectively. After 2 h of preincubation, TG-containing DMEM was added to give a final concentration of 15 μM and incubated for an additional 20 h. Cell viability was assessed by a cellular ATP content assay (ATPlite, PerkinElmer Life Sciences).

[3] = system: BGMK cells; assay: cells; assay type: cell-based; conditions: read-out: % BGMK Cell Viability after treatment with 15 μM TG in Presence of 10 μM compound
From the text: Ability of compounds to rescue BGMK cells from thapsigargin-induced cell death. To assess an orthogonal cell line and further validate the ability of SUMOylation activators to rescue varied cell types, the compounds were also profiled for cytoprotection in BGMK cells. Again, we used the known ER stress-causing agent thapsigargin (TG) to model the compromised state in vitro. BGMKs were subcultured at 1.2×10^4 cells/ml. Wells treated with compound were done so for 2 hr. […] After treatment, all cells were washed and fed fresh DMEM complete media and CCK-8 development vehicle, incubated for 2 hr, and absorbance was measured to assess viability. Controls were DMSO (0% viability) and Salubrinal (47% viability).

| SMILES | % INCREASE IN SUMOylation over endogenous baseline level [1] | viability at 10 µM [2] | viability at 10 µM [3] |
| --- | --- | --- | --- |
| O=C(Nc1nc(-c2ccccn2)cs1)c1ccc(S(=O)(=O)N2CCCCC2)cc1 [Compound C1, 4-(1-Piperidinylsulfonyl)-N-[4-(2-pyridinyl)-2-thiazolyl]-benzamide] | D (D = 40%-60% increase in SUMOylation over baseline levels) | 40 to 50% | – |
| CC(=O)Nc1ccc(C(=O)Nc2nc(-c3cccnc3)cs2)cc1 [Compound C2, 4-(Acetylamino)-N-[4-(3-pyridinyl)-2-thiazolyl]-benzamide] | A (A = 10%-20% increase) | – | – |
| O=C(Nc1nc(-c2ccccn2)cs1)c1ccc2c(c1)OCCO2 [Compound C3, N-(4-(Pyridin-2-yl)thiazol-2-yl)-2,3-dihydrobenzo[b][1,4]dioxine-6-carboxamide] | A (A = 10%-20% increase) | – | 51 to 60% |
| O=C(Nc1nc(-c2ccccn2)cs1)C1COc2ccccc2O1 (stereo not shown) [Compound C4, N-(4-(Pyridin-2-yl)thiazol-2-yl)-2,3-dihydrobenzo[b][1,4]dioxine-2-carboxamide] | D (D = 40%-60% increase in SUMOylation over baseline levels) | 61 to 70% | 61 to 85% |
| O=C(Nc1nc(-c2ccccn2)cs1)c1ccc(Cl)s1 [Compound C5, 5-Chloro-N-(4-(pyridin-2-yl)thiazol-2-yl)thiophene-2-carboxamide] | B (B = 21%-30% increase) | – | 41 to 50% |
| O=C(Nc1nc(-c2ccccn2)cs1)c1ccc(Br)s1 [Compound C6, 5-Bromo-N-(4-(pyridin-2-yl)thiazol-2-yl)thiophene-2-carboxamide] | C (C = 31%-40% increase) | 61 to 70% | 61 to 85% |
